{"source": "paper PMC5218480", "about": "(PLoS ONE, 2017)", "test_system": "MV-4-11 cells", "assay": "Gene expression microarray analysis (Affymetrix PrimeView) and GSEA", "type": "cell-based, human", "parameters": "RFU PODN (11730768_x_at) / Fold change /veh PODN (11730768_x_at) / RFU LINC00158 (11744669_a_at) / Fold change /veh LINC00158 (11744669_a_at) / RFU DUSP10 (11751237_a_at) / Fold change /veh DUSP10 (11751237_a_at) / RFU ID3 (11757404_x_at) / Fold change /veh ID3 (11757404_x_at) / RFU PLEKHG5 (11737974_s_at) / Fold change /veh PLEKHG5 (11737974_s_at) / RFU LRRC4B (11730491_at) / Fold change /veh LRRC4B (11730491_at) / RFU GIMAP4 (11747438_a_at) / Fold change /veh GIMAP4 (11747438_a_at) / RFU KRT8 (11758183_x_at) / Fold change /veh KRT8 (11758183_x_at) / RFU CNN1 (11734310_a_at) / Fold change /veh CNN1 (11734310_a_at) / RFU VPS37D (11726825_at) / Fold change /veh VPS37D (11726825_at) / RFU C10orf10 (11716522_x_at) / Fold change /veh C10orf10 (11716522_x_at) / RFU KIR2DL2 /// KIR2DL4 /// KIR2DL5A /// KIR2DL5B /// KIR2DS1 /// KIR2DS2 /// KIR2DS3 /// KIR2DS4 /// KIR3DL3 /// KIR3DL3 /// KIR3DS1 (11738374_at) / Fold change /veh KIR2DL2 /// KIR2DL4 /// KIR2DL5A /// KIR2DL5B /// KIR2DS1 /// KIR2DS2 /// KIR2DS3 /// KIR2DS4 /// KIR3DL3 /// KIR3DL3 /// KIR3DS1 (11738374_at) / RFU C1QL1 (11718748_at) / Fold change /veh C1QL1 (11718748_at) / RFU TMPRSS4 (11747572_a_at) / Fold change /veh TMPRSS4 (11747572_a_at) / RFU HAMP (11756126_x_at) / Fold change /veh HAMP (11756126_x_at) / RFU RNFT2 (11725882_a_at) / Fold change /veh RNFT2 (11725882_a_at) / RFU NR4A2 (11747474_a_at) / Fold change /veh NR4A2 (11747474_a_at) / RFU ABCC12 (11746883_a_at) / Fold change /veh ABCC12 (11746883_a_at) / RFU TMEM136 (11760407_x_at) / Fold change /veh TMEM136 (11760407_x_at) / RFU CLDN22 /// WWC2 (11732394_at) / Fold change /veh CLDN22 /// WWC2 (11732394_at) / RFU HLA-DPB1 (11760878_x_at) / Fold change /veh HLA-DPB1 (11760878_x_at) / RFU SPINT1 (11716480_a_at) / Fold change /veh SPINT1 (11716480_a_at) / RFU GAP43 (11754022_s_at) / Fold change /veh GAP43 (11754022_s_at) / RFU A4GNT (11735810_at) / Fold change /veh A4GNT (11735810_at) / RFU PRB3 (11715151_x_at) / Fold change /veh PRB3 (11715151_x_at) / RFU TUBB4B (11761932_at) / Fold change /veh TUBB4B (11761932_at) / RFU CAPN14 (11732068_a_at) / Fold change /veh CAPN14 (11732068_a_at) / RFU TMCC2 (11721928_a_at) / Fold change /veh TMCC2 (11721928_a_at) / RFU IRGQ (11745062_a_at) / Fold change /veh IRGQ (11745062_a_at) / RFU FAM174B (11720279_a_at) / Fold change /veh FAM174B (11720279_a_at) / RFU TMPRSS4 (11748680_a_at) / Fold change /veh TMPRSS4 (11748680_a_at) / RFU FAM212B (11763350_a_at) / Fold change /veh FAM212B (11763350_a_at) / RFU PLEKHG5 (11743358_a_at) / Fold change /veh PLEKHG5 (11743358_a_at) / RFU ZSCAN30 (11745921_a_at) / Fold change /veh ZSCAN30 (11745921_a_at) / RFU CMKLR1 (11741424_a_at) / Fold change /veh CMKLR1 (11741424_a_at) / RFU LOC101060620 /// MAPK8IP1 (11723275_at) / Fold change /veh LOC101060620 /// MAPK8IP1 (11723275_at) / RFU SPTSSB (11747773_x_at) / Fold change /veh SPTSSB (11747773_x_at) / RFU PRSS12 (11739890_at) / Fold change /veh PRSS12 (11739890_at) / RFU BIN1 (11741810_x_at) / Fold change /veh BIN1 (11741810_x_at) / RFU WNT11 (11732464_a_at) / Fold change /veh WNT11 (11732464_a_at) / RFU C10orf10 (11716521_a_at) / Fold change /veh C10orf10 (11716521_a_at) / RFU C5orf56 (11738089_at) / Fold change /veh C5orf56 (11738089_at) / RFU CYB561 (11721691_x_at) / Fold change /veh CYB561 (11721691_x_at) / RFU ANKRD19P (11752326_a_at) / Fold change /veh ANKRD19P (11752326_a_at) / RFU OR2T12 /// OR2T33 /// OR2T8 (11738714_s_at) / Fold change /veh OR2T12 /// OR2T33 /// OR2T8 (11738714_s_at) / RFU VCAN (11748164_a_at) / Fold change /veh VCAN (11748164_a_at) / RFU JSRP1 (11732532_at) / Fold change /veh JSRP1 (11732532_at) / RFU KRTAP10-11 (11738290_x_at) / Fold change /veh KRTAP10-11 (11738290_x_at) / RFU MYO3A (11730013_a_at) / Fold change /veh MYO3A (11730013_a_at) / RFU EBF3 (11725865_a_at) / Fold change /veh EBF3 (11725865_a_at) / RFU CAMK2N1 (11719241_x_at) / Fold change /veh CAMK2N1 (11719241_x_at) / RFU C5orf56 (11738088_a_at) / Fold change /veh C5orf56 (11738088_a_at) / RFU OLFML3 (11715873_a_at) / Fold change /veh OLFML3 (11715873_a_at) / RFU LOC100653217 /// NTM (11731650_a_at) / Fold change /veh LOC100653217 /// NTM (11731650_a_at) / RFU MAPK11 (11762145_a_at) / Fold change /veh MAPK11 (11762145_a_at) / RFU FIZ1 (11724087_x_at) / Fold change /veh FIZ1 (11724087_x_at) / RFU OASL (11726364_x_at) / Fold change /veh OASL (11726364_x_at) / RFU SOX15 (11748057_x_at) / Fold change /veh SOX15 (11748057_x_at) / RFU CD79A (11719716_a_at) / Fold change /veh CD79A (11719716_a_at) / RFU HIST1H1D (11736915_at) / Fold change /veh HIST1H1D (11736915_at) / RFU CASKIN2 (11723855_a_at) / Fold change /veh CASKIN2 (11723855_a_at) / RFU LOC730098 (11760151_x_at) / Fold change /veh LOC730098 (11760151_x_at) / RFU OR4N2 (11742367_at) / Fold change /veh OR4N2 (11742367_at) / RFU PRRT2 (11749266_a_at) / Fold change /veh PRRT2 (11749266_a_at) / RFU SNX32 (11753110_a_at) / Fold change /veh SNX32 (11753110_a_at) / RFU CDHR5 (11726645_a_at) / Fold change /veh CDHR5 (11726645_a_at) / RFU RCAN1 (11760418_a_at) / Fold change /veh RCAN1 (11760418_a_at) / RFU FAM167A (11723789_a_at) / Fold change /veh FAM167A (11723789_a_at) / RFU FAM26E (11764081_at) / Fold change /veh FAM26E (11764081_at) / RFU ISYNA1 (11749810_s_at) / Fold change /veh ISYNA1 (11749810_s_at) / RFU ACY1 (11761880_at) / Fold change /veh ACY1 (11761880_at) / RFU 11764098_at / Fold change /veh 11764098_at / RFU SAMD14 (11745864_x_at) / Fold change /veh SAMD14 (11745864_x_at) / RFU NPB (11741838_a_at) / Fold change /veh NPB (11741838_a_at) / RFU TMPRSS6 (11731388_a_at) / Fold change /veh TMPRSS6 (11731388_a_at) / RFU KRTAP10-2 (11738614_at) / Fold change /veh KRTAP10-2 (11738614_at) / RFU ARHGAP8 /// PRR5-ARHGAP8 (11727945_x_at) / Fold change /veh ARHGAP8 /// PRR5-ARHGAP8 (11727945_x_at) / RFU KRTAP5-7 /// NADSYN1 (11734609_at) / Fold change /veh KRTAP5-7 /// NADSYN1 (11734609_at) / RFU RASL12 (11751679_a_at) / Fold change /veh RASL12 (11751679_a_at) / RFU CDKN2B (11736163_a_at) / Fold change /veh CDKN2B (11736163_a_at) / RFU PRF1 (11729649_at) / Fold change /veh PRF1 (11729649_at) / RFU, ZNF638 /// ZNF638-IT1 / Fold change vs veh, ZNF638 /// ZNF638-IT1 / RFU, PANK3 / Fold change vs veh, PANK3 / RFU, SH3YL1 / Fold change vs veh, SH3YL1 / RFU, ZEB2 / Fold change vs veh, ZEB2 / RFU, NRIP1 / Fold change vs veh, NRIP1 / RFU, PTTG1IP / Fold change vs veh, PTTG1IP / RFU, CAPN2 / Fold change vs veh, CAPN2 / RFU, MED14 / Fold change vs veh, MED14 / RFU, SNORA58 / Fold change vs veh, SNORA58 / RFU, C1orf63 / Fold change vs veh, C1orf63 / RFU, LRRFIP1 / Fold change vs veh, LRRFIP1 / RFU, NDUFAF7 / Fold change vs veh, NDUFAF7 / RFU, SLC12A2 / Fold change vs veh, SLC12A2 / RFU, IBTK / Fold change vs veh, IBTK / RFU, ESF1 / Fold change vs veh, ESF1 / Fold change vs veh, TMEM50B / RFU, TAOK1 / Fold change vs veh, TAOK1 / RFU, ACBD3 / Fold change vs veh, ACBD3 / RFU, TMA16 / Fold change vs veh, TMA16 / RFU, RWDD3 / Fold change vs veh, RWDD3 / RFU, BCAT1 / Fold change vs veh, BCAT1 / RFU, EDEM3 / Fold change vs veh, EDEM3 / RFU, TMEM33 / Fold change vs veh, TMEM33 / RFU, WDR75 / Fold change vs veh, WDR75 / RFU, AHCTF1 / Fold change vs veh, AHCTF1 / RFU, TFRC / Fold change vs veh, TFRC / RFU, ZDHHC17 / Fold change vs veh, ZDHHC17 / RFU, NOM1 / Fold change vs veh, NOM1 / RFU, ARL8B / Fold change vs veh, ARL8B / RFU, ZBTB11 / Fold change vs veh, ZBTB11 / RFU, TAMM41 / Fold change vs veh, TAMM41 / RFU, KIAA1704 /// LOC100996395 / Fold change vs veh, KIAA1704 /// LOC100996395 / RFU, ING1 / Fold change vs veh, ING1 / RFU, TRMT61B / Fold change vs veh, TRMT61B / RFU, FUBP3 / Fold change vs veh, FUBP3 / RFU, TP53 / Fold change vs veh, TP53 / RFU, TNKS2 / Fold change vs veh, TNKS2 / RFU, ZFP14 / Fold change vs veh, ZFP14 / RFU, ACTR2 / Fold change vs veh, ACTR2 / RFU, PPP3R1 / Fold change vs veh, PPP3R1 / RFU, PIK3R1 / Fold change vs veh, PIK3R1 / RFU, HNRNPA1 / Fold change vs veh, HNRNPA1 / RFU, RNF170 / Fold change vs veh, RNF170 / RFU, ZNF28 / Fold change vs veh, ZNF28 / RFU, RNGTT / Fold change vs veh, RNGTT / RFU, OGT / Fold change vs veh, OGT / RFU, BRD1 / Fold change vs veh, BRD1 / RFU, MARS / Fold change vs veh, MARS / RFU, ZNF655 / Fold change vs veh, ZNF655 / RFU, FAHD1 / Fold change vs veh, FAHD1 / RFU, BDP1 / Fold change vs veh, BDP1 / RFU, LRRCC1 / Fold change vs veh, LRRCC1 / RFU, ARID1A / Fold change vs veh, ARID1A / RFU, ZNF146 / Fold change vs veh, ZNF146 / RFU, ZNF330 / Fold change vs veh, ZNF330 / RFU, GPN3 / Fold change vs veh, GPN3 / RFU, C9orf123 / Fold change vs veh, C9orf123 / RFU, N4BP2L2 / Fold change vs veh, N4BP2L2 / RFU, ARFIP1 / Fold change vs veh, ARFIP1 / RFU, FAM179B / Fold change vs veh, FAM179B / RFU, BCL10 / Fold change vs veh, BCL10 / RFU, UHRF1BP1L / Fold change vs veh, UHRF1BP1L / RFU, BET1 / Fold change vs veh, BET1 / RFU, CNOT2 / Fold change vs veh, CNOT2 / RFU, ZNF268 / Fold change vs veh, ZNF268 / Fold change vs veh, ZNF507 / RFU, DGCR2 / Fold change vs veh, DGCR2 / RFU, WDSUB1 / Fold change vs veh, WDSUB1 / Fold change vs veh, HSP90B1 /// MIR3652 / RFU, ADSS / Fold change vs veh, ADSS / RFU, GK / Fold change vs veh, GK / RFU, ZNF148 / Fold change vs veh, ZNF148 / RFU, TAF9 / Fold change vs veh, TAF9 / RFU, SLC1A5 / Fold change vs veh, SLC1A5 / RFU, SLMO2 / Fold change vs veh, SLMO2 / RFU, ABCC4 / Fold change vs veh, ABCC4 / RFU, LOC101060439 /// RAP1B / Fold change vs veh, LOC101060439 /// RAP1B / RFU, RFX7 / Fold change vs veh, RFX7 / RFU, GTPBP10 / Fold change vs veh, GTPBP10 / RFU, CNEP1R1 / Fold change vs veh, CNEP1R1 / RFU, BIVM-ERCC5 /// ERCC5 / Fold change vs veh, BIVM-ERCC5 /// ERCC5 / RFU, ILF3 / Fold change vs veh, ILF3 / RFU 11762660_at / Fold change /veh 11762660_at / RFU VCAN (11757783_s_at) / Fold change /veh VCAN (11757783_s_at) / RFU DDX43 (11728927_at) / Fold change /veh DDX43 (11728927_at) / RFU KRT8 (11758188_x_at) / Fold change /veh KRT8 (11758188_x_at) / RFU NKD1 (11759106_at) / Fold change /veh NKD1 (11759106_at) / RFU SRD5A1 (11742802_a_at) / Fold change /veh SRD5A1 (11742802_a_at) / RFU TPSAB1 /// TPSB2 (11721975_s_at) / Fold change /veh TPSAB1 /// TPSB2 (11721975_s_at) / RFU GSTM3 (11746129_a_at) / Fold change /veh GSTM3 (11746129_a_at) / RFU IL23R (11737362_x_at) / Fold change /veh IL23R (11737362_x_at) / RFU TMEM51 (11727254_a_at) / Fold change /veh TMEM51 (11727254_a_at) / RFU PIWIL2 (11732686_x_at) / Fold change /veh PIWIL2 (11732686_x_at) / RFU ORM1 (11744905_x_at) / Fold change /veh ORM1 (11744905_x_at) / RFU CCDC152 (11743942_at) / Fold change /veh CCDC152 (11743942_at) / RFU ECM1 (11717891_a_at) / Fold change /veh ECM1 (11717891_a_at) / RFU IL23R (11748794_a_at) / Fold change /veh IL23R (11748794_a_at) / RFU TNFAIP8L3 (11732012_x_at) / Fold change /veh TNFAIP8L3 (11732012_x_at) / RFU MBOAT4 (11741988_at) / Fold change /veh MBOAT4 (11741988_at) / RFU 11764193_at / Fold change /veh 11764193_at / RFU TMEM53 (11763286_at) / Fold change /veh TMEM53 (11763286_at) / RFU MAGEB2 (11727129_at) / Fold change /veh MAGEB2 (11727129_at) / RFU TMEM200A (11744735_a_at) / Fold change /veh TMEM200A (11744735_a_at) / RFU CCDC152 (11751479_a_at) / Fold change /veh CCDC152 (11751479_a_at) / RFU FAM211A (11726209_a_at) / Fold change /veh FAM211A (11726209_a_at) / RFU RGS16 (11746705_a_at) / Fold change /veh RGS16 (11746705_a_at) / RFU VCAN (11755009_s_at) / Fold change /veh VCAN (11755009_s_at) / RFU RHOB (11743442_s_at) / Fold change /veh RHOB (11743442_s_at) / RFU RGS16 (11720943_a_at) / Fold change /veh RGS16 (11720943_a_at) / RFU RGS16 (11720944_at) / Fold change /veh RGS16 (11720944_at) / RFU, VPS4B / Fold change vs veh, VPS4B / RFU, CREB1 / Fold change vs veh, CREB1 / RFU, DNAJC13 / Fold change vs veh, DNAJC13 / RFU, GNAQ / Fold change vs veh, GNAQ / RFU, CDK5R1 / Fold change vs veh, CDK5R1 / RFU, ZRANB3 / Fold change vs veh, ZRANB3 / RFU, CUL4A / Fold change vs veh, CUL4A / RFU, CCNY / Fold change vs veh, CCNY / RFU, UFL1 / Fold change vs veh, UFL1 / RFU, COG3 / Fold change vs veh, COG3 / RFU, DIAPH2 / Fold change vs veh, DIAPH2 / RFU, SKA2 / Fold change vs veh, SKA2 / RFU, AFF3 / Fold change vs veh, AFF3 / RFU, LMF1 / Fold change vs veh, LMF1 / RFU, IPO11 / Fold change vs veh, IPO11 / RFU, DFFB / Fold change vs veh, DFFB / RFU, FOXP1 / Fold change vs veh, FOXP1 / RFU, CARD8 / Fold change vs veh, CARD8 / RFU, STRN3 / Fold change vs veh, STRN3 / RFU, ADK / Fold change vs veh, ADK / RFU, RASSF2 / Fold change vs veh, RASSF2 / RFU, WIPF1 / Fold change vs veh, WIPF1 / RFU, LARP1B / Fold change vs veh, LARP1B / RFU, RASA1 / Fold change vs veh, RASA1 / RFU, RB1 / Fold change vs veh, RB1 / RFU, PPFIA1 / Fold change vs veh, PPFIA1 / RFU, MAT2A / Fold change vs veh, MAT2A / RFU, CCT5 / Fold change vs veh, CCT5 / RFU, WDR92 / Fold change vs veh, WDR92 / RFU, CUX1 / Fold change vs veh, CUX1 / RFU, TTC7A / Fold change vs veh, TTC7A / RFU, TMEM135 / Fold change vs veh, TMEM135 / RFU, DEPTOR / Fold change vs veh, DEPTOR / RFU, CPM / Fold change vs veh, CPM / RFU, DNAJB6 / Fold change vs veh, DNAJB6 / RFU, CACNA2D3 / Fold change vs veh, CACNA2D3 / RFU, DTX4 / Fold change vs veh, DTX4 / RFU, TFCP2 / Fold change vs veh, TFCP2 / RFU, GMCL1 /// GMCL1P1 / Fold change vs veh, GMCL1 /// GMCL1P1 / RFU, AEBP2 / Fold change vs veh, AEBP2 / RFU, SNHG1 /// SNORD22 /// SNORD25 /// SNORD26 /// SNORD27 /// SNORD28 /// SNORD29 /// SNORD31 / Fold change vs veh, SNHG1 /// SNORD22 /// SNORD25 /// SNORD26 /// SNORD27 /// SNORD28 /// SNORD29 /// SNORD31 / Fold change (Aza/veh), C12orf56 (ProbeSet 11735607_a_at) / Fold change (ACY-1035/veh), C12orf56 (ProbeSet 11735607_a_at) / Fold change (Aza/veh), FGFR1OP (ProbeSet 11751329_s_at) / Fold change (ACY-1035/veh), FGFR1OP (ProbeSet 11751329_s_at) / Fold change (Aza/veh), VPS36 (ProbeSet 11739960_a_at) / Fold change (ACY-1035/veh), VPS36 (ProbeSet 11739960_a_at) / RFU SYPL1 (11715823_x_at) / Fold change /veh SYPL1 (11715823_x_at) / RFU IGFBP7 (11715501_s_at) / Fold change /veh IGFBP7 (11715501_s_at) / RFU REEP3 (11722064_at) / Fold change /veh REEP3 (11722064_at) / RFU IGLL1 (11728026_x_at) / Fold change /veh IGLL1 (11728026_x_at): dose or concentration left out as unconfirmed", "conditions": "MV-4-11 cells, 48 hours", "data": [{"smiles": "Nc1ccc(-c2cccs2)cc1NC(=O)c1ccc2c(c1)cc(C1CC1)n2CCN1CCOCC1", "note": "[ACY-1035]", "values": [{"measurement": "RFU LINC00158 (11744669_a_at)", "value": 7.93, "unit": "RFU"}]}]}
